From patent publication US10947188B2, “Small molecule ferroptosis inducers” (THE TRUSTEES OF COLUMBIA UNIVERSITY IN THE CITY OF NEW YORK, priority 2016, dated 2021)
Converted amounts (≈) assume the structure as drawn.

Tested on: HT-1080 cells
Assay: Lethality of commercially available CIL41/70 structural analogs
Format: cell-based
Conditions: Homo sapiens, tested once in technical triplicates
Description: 1,000 cells per 36 μl were seeded in each well in 384-well plates. Lethal compounds were dissolved, and a twofold, 12-point dilution series was prepared in DMSO. Compound solutions were further diluted with media at 1:25, and 4 μl per well of the diluted solutions was added to cell cultures immediately after cells were seeded. […] When other cell-death-modulating compounds (100 nM sodium selenite, 1 μM cerivastatin, 100 μg/mL mevalonic acid) were used in cotreatments, they were supplemented to cell culture for 24 h before lethal compounds were added to cell culture, after which cells were further incubated for 24 h at 37° C. under 5% CO2. On the day of the viability measurement, we added 10 μl per well of 50% Alamar Blue diluted in media (Life Technologies) and further incubated the cells at 37° C. for 6 h. Fluorescence intensity (excitation/emission: 530/590) was measured with a Victor 3 plate reader (PerkinElmer), and the normalized viability was calculated as VL=(IL−I0)/(IV−I0), where VL, I0, IV, and IL are the normalized viability and the raw fluorescence intensities from the wells containing media, cells treated with a vehicle (negative control), and cells with the lethal compound (L), respectively. When the effect of a chemical modulator (M) on L was calculated, we instead used the equation VL|M=(IM,L−I0)/(IM,V−I0), where VL|M, IM,L and IM,V are the normalized viability, and fluorescence intensity from cells treated with […], respectively. The viability was typically measured in biological triplicate unless otherwise specified. A representative dose-response curve, the mean and standard error of normalized viability from one replicate were plotted. HT-1080 viability after modulator treatments corresponding to FIG. 3C and FIGS. 5E-5F is available in FIGS. 19A-19C.
Their lethality was tested once in HT-1080 cells in technical triplicates.

COc1ccc(C/C(N)=N/OC(=O)COc2cccc3ccccc23)cc1 [CB10]
EC50: > 20 µg/mL

COc1ccc(C/C(N)=N/OC(=O)Cc2ccc(Cl)cc2)cc1 [CB11]
EC50: > 20 µg/mL

COc1ccccc1C/C(N)=N/OC(=O)Cc1ccc(Cl)cc1 [CB12]
EC50: > 20 µg/mL

COc1ccccc1C/C(N)=N/OC(=O)COc1cccc2ccccc12 [CB13]
EC50: > 20 µg/mL

CC(C)(C)C(=O)O/N=C(\N)Cc1ccc([N+](=O)[O-])cc1 [CB14]
EC50: 14 µg/mL (≈ 50.1 µM)

COc1ccccc1C/C(N)=N/OC(=O)COc1ccc(C)cc1C [CB15]
EC50: > 20 µg/mL
